Format in all cases: functional
For experiment [1], the species on record is Cavia porcellus. The experiment in a line: Evaluated for in vitro antiplatelet activity against guinea pig platelet rich plasma aggregated by arachidonic acid (AA).
The species entered for experiment [2] is Cavia porcellus. Put plainly: In vitro antiplatelet activity against guinea pig platelet rich plasma aggregated by collagen.
The species entered for experiment [3] is Cavia porcellus. The experiment in a line: Evaluated for in vitro antiplatelet activity against guinea pig platelet rich plasma aggregated by […] (ADP).

Each structure is given as a SMILES string.

A word on the IC50: it is the concentration at which inhibition is half-maximal. Consider `c1ccc2c(c1)OC(N1CCOCC1)c1cnc(N3CCCC3)nc1-2` (stereo not given), for which the IC50 in experiment [1] (read-out: IC50) came out at 75 µM; in experiment [2] (read-out: IC50) it was 50 µM.
On to `CSc1ncc2c(n1)-c1ccccc1OC2N1CCCC1` (stereo not given), for which the IC50 turned out to be 180 µM in experiment [3] and 85 µM in experiment [1] (read-out: IC50).
In the case of `CC(=O)Oc1ccccc1C(=O)O` [ASPIRIN], the 50% inhibitory concentration (IC50) in experiment [1] came out at 61 µM; in experiment [2], 48 µM.
For `c1ccc2c(c1)OC(N1CCCC1)c1cnc(N3CCOCC3)nc1-2` (stereo not given), the IC50 in experiment [3] was found to be 250 µM; in experiment [1] (read-out: IC50), 430 µM; in experiment [2] (read-out: IC50), 80 µM.
As to `c1ccc2c(c1)OC(N1CCCCC1)c1cnc(N3CCCC3)nc1-2` (stereo not given), in experiment [1] (read-out: IC50), the IC50 is 90 µM.
As for `c1ccc2c(c1)OC(N1CCCC1)c1cnc(N3CCCC3)nc1-2` (stereo not given), the IC50 in experiment [3] came out at 200 µM; in experiment [1] (read-out: IC50) it was 80 µM; in experiment [2] (read-out: IC50), 170 µM.
In the case of `c1ccc2c(c1)OC(N1CCOCC1)c1cnc(N3CCCCC3)nc1-2` (stereo not given), the half-maximal inhibitory concentration (IC50) in experiment [1] (read-out: IC50) came out at 25 µM; in experiment [2] (read-out: IC50) it was 60 µM.
Regarding `c1ccc2c(c1)OC(N1CCCCC1)c1cnc(N3CCOCC3)nc1-2` (stereo not given), in experiment [2] (read-out: IC50), the IC50 was found to be 200 µM.
Turning to `c1ccc2c(c1)OC(N1CCOCC1)c1cnc(N3CCOCC3)nc1-2` (stereo not given), the results for the IC50 in experiment [1] (read-out: IC50) and in experiment [2] (read-out: IC50) were 95 µM and 60 µM, respectively.
As to `Nc1ncc2c(n1)-c1ccccc1OC2N1CCCC1` (stereo not given), the IC50 was determined as 750 µM in experiment [3] and 400 µM in experiment [1] (read-out: IC50).

(Values after ChEMBL document CHEMBL1134079, “Synthesis and pharmacological evaluation of 2,5-cycloamino-5H-[1]benzopyrano[4,3-d]pyrimidines endowed with in vitro antiplatelet activity” (Bioorg Med Chem Lett, 2001).)
